What was measured:
[1] = target: farnesyl protein transferase (Homo sapiens, UniProt P49354+P49356); test: FPT IC50 (inhibition of farnesyl protein transferase, in vitro enzyme assay); format: biochemical
Procedure: (§1) FPT IC50 (inhibition of farnesyl protein transferase, in vitro enzyme assay), COS Cell IC50 (Cell-Based Assay), GGPT IC50 (inhibition of geranylgeranyl protein transferase, in vitro enzyme assay), Cell Mat Assay, and anti-tumor activity (in vivo anti-tumor studies) are determined by the assay procedures described in WO 95/10516.

COS Cell = COS Cell IC50 (Cell-Based Assay)
Procedure: as §1

Row | SMILES | IC50 [1] | IC50 (COS Cell)
1 | C/C(CCC(=O)N1CCC([C@H]2c3ncc(Br)cc3CCc3cc(Cl)cc(Br)c32)CC1)=N\O [Example 8] | 4.9 nM | 52 nM
2 | O=C(CC/C(=N\O)c1ccccc1)N1CCC([C@H]2c3ncc(Br)cc3CCc3cc(Cl)cc(Br)c32)CC1 [Example 10] | 4.7 nM | –
3 | CC(CCC(=O)N1CCC([C@H]2c3ncc(Br)cc3CCc3cc(Cl)cc(Br)c32)CC1)=NNC(=O)C(N)=O [Example 13] | 6.9 nM | –
4 | CC(=O)C(=O)N1CCC([C@H]2c3ncc(Br)cc3CCc3cc(Cl)cc(Br)c32)CC1 [Example 6] | 46 nM | –
5 | CC(CCC(=O)N1CCC([C@H]2c3ncc(Br)cc3CCc3cc(Cl)cc(Br)c32)CC1)=NNC(N)=O [Example 12] | 9.7 nM | –
6 | C/C(CCC(=O)N1CCC([C@H]2c3ncc(Br)cc3CCc3cc(Cl)cc(Br)c32)CC1)=N/O [Example 7] | 11 nM | –
7 | O=C(C(=O)N1CCC([C@H]2c3ncc(Br)cc3CCc3cc(Cl)cc(Br)c32)CC1)c1ccccc1 [Example 2] | 65 nM | –
8 | CO/N=C(\CCC(=O)N1CCC([C@H]2c3ncc(Br)cc3CCc3cc(Cl)cc(Br)c32)CC1)c1ccccc1 [Example 11] | 88 nM | –
9 | O=C(CCC(=O)N1CCC([C@H]2c3ncc(Br)cc3CCc3cc(Cl)cc(Br)c32)CC1)c1ccccc1 [Example 1] | 21 nM | –
10 | CC(=O)CC(=O)CCC(=O)N1CCC([C@H]2c3ncc(Br)cc3CCc3cc(Cl)cc(Br)c32)CC1 [Example 5] | 9.2 nM | 175 nM
11 | CC(=O)CCCC(=O)N1CCC([C@H]2c3ncc(Br)cc3CCc3cc(Cl)cc(Br)c32)CC1 [Example 4] | 7.6 nM | 10 nM
12 | O=C(/C(=N\O)c1ccccc1)N1CCC([C@H]2c3ncc(Br)cc3CCc3cc(Cl)cc(Br)c32)CC1 [Example 9] | > 150 nM | –
13 | CC(=O)CCC(=O)N1CCC([C@H]2c3ncc(Br)cc3CCc3cc(Cl)cc(Br)c32)CC1 [Example 3] | 3.4 nM | 54 nM

From US5925639A, “Keto amide derivatives useful as farnesyl protein transferase inhibitors” (Schering Corporation, priority 1997, dated 1999)
